According to patent publication US6387848B1, “Non-aqueous concentrated spreading oil composition” (priority 2000, dated 2002):
Where two headings read alike, the source gives them in different places.

Columns and labels:
Pyricularia oryzae [1] = assay type: in vivo; conditions: added to the water, 52 days after treatment
Pyricularia oryzae [2] = assay type: in vivo; conditions: added to the water, 126 day after treatment
[3] = Granules 50 g/kg, dose 100 g/ha
[4] = Granules 50 g/kg, dose 250 g/ha
[5] = Granules 50 g/kg, dose 500 g/ha
[6] = Granules 50 g/kg, dose 1000 g/ha
[7] = SO 30 g/L (Example 1), dose 50 g/ha
[8] = SO 30 g/L (Example 1), dose 100 g/ha
[9] = SO 30 g/L (Example 1), dose 250 g/ha
[10] = SO 30 g/L (Example 1), dose 500 g/ha
[11] = SO 30 g/L (Example 1), dose 1000 g/ha

SMILES: C[C@H](Nc1c(-c2c(F)cc(F)cc2F)c(Cl)nc2ncnn12)C(F)(F)F [(S)-Azolopyrimidine C, 5-chloro-6-(2,4,6-trifluorophenyl)-7-(1,1,1-trifluoroprop-2-ylamino)-[1,2,4]triazolo[1,5-a]pyrimidine]
- Percent rice leaf blast control, control (%) (Pyricularia oryzae [1]; [3]): 78%
- Percent rice leaf blast control, control (%) (Pyricularia oryzae [1]; [4]): 86%
- Percent rice leaf blast control, control (%) (Pyricularia oryzae [1]; [5]): 90%
- Percent rice leaf blast control, control (%) (Pyricularia oryzae [1]; [6]): 95%
- Percent rice leaf blast control, control (%) (Pyricularia oryzae [1]; Granules 50 g/kg, dose 1500 g/ha): 97%
- Percent rice leaf blast control, control (%) (Pyricularia oryzae [1]; [7]): 84%
- Percent rice leaf blast control, control (%) (Pyricularia oryzae [1]; [8]): 89%
- Percent rice leaf blast control, control (%) (Pyricularia oryzae [1]; [9]): 95%
- Percent rice leaf blast control, control (%) (Pyricularia oryzae [1]; [10]): 97%
- Percent rice leaf blast control, control (%) (Pyricularia oryzae [1]; [11]): 98%
- Percent rice danicle blast control, control (%) (Pyricularia oryzae [2]; [3]): 39%
- Percent rice danicle blast control, control (%) (Pyricularia oryzae [2]; [4]): 44%
- Percent rice danicle blast control, control (%) (Pyricularia oryzae [2]; [5]): 67%
- Percent rice danicle blast control, control (%) (Pyricularia oryzae [2]; [6]): 82%
- Percent rice danicle blast control, control (%) (Pyricularia oryzae [2]; [7]): 22%
- Percent rice danicle blast control, control (%) (Pyricularia oryzae [2]; [8]): 44%
- Percent rice danicle blast control, control (%) (Pyricularia oryzae [2]; [9]): 67%
- Percent rice danicle blast control, control (%) (Pyricularia oryzae [2]; [10]): 78%
- Percent rice danicle blast control, control (%) (Pyricularia oryzae [2]; [11]): 84%
